The values that follow come from publication PMC2653417 (Bioorganic & medicinal chemistry letters, 2008).

Assay [1] has as its target T1, Hsp90 (Homo sapiens, UniProt P07900). The assay is described as follows: fluorescent polarization.
Assay [2] addresses T1, Hsp90. As to conditions: cited from earlier work.
Assay [3] concerns the target T1, Hsp90. As to conditions: cited from earlier work. This is another data set of the same source.
In assay [4] the test system is HER2 over-expressing SKBr3 breast cancer cells. The assay is described as follows: cell growth inhibition assay. The format is cell-based. The following applies: Homo sapiens, SK-BR-3, 72 h, read-out: IC50 SKBr3.
For assay [5] the following is noted: read-out: IC50 cell growth inhibition; cited from earlier work.
The subject of a further assay is PRAS40. Briefly: Western blot assay, client protein degradation. In kind it is cell-based. On the technique in general: In western blotting, separated proteins are transferred to a membrane and probed.
Another assay relates to Raf-1. The assay is described as follows: Western blot assay, client protein degradation. The format is cell-based.

With `O=S(=O)(Nc1ccc(O)c(-c2ccccc2O)c1)c1cc(Cl)ccc1Cl` [Compound 9a], on Hsp90 [1] (relative to compound 2), the “fold less activity than 2 in FP assay” value is given as “about 20 fold”.
Turning to `O=S(=O)(Nc1ccc(O)c(-c2c(O)ccc3ccccc23)c1)c1ccccc1` [Compound 1], the “activity in FP assay” value on Hsp90 [2] is recorded as “low micromolar activity”. In addition, the “activity in malachite green assay” value at Hsp90 [3] was “low micromolar activity”.
The IC50 is the point on the concentration scale where inhibition reaches its midpoint. On to `O=S(=O)(Nc1ccc(O)c(-c2c(O)ccc3c2OCO3)c1)c1cc(Cl)ccc1Cl` [Compound 17], for which the IC50 in assay [4] is 4.4 µM.
`O=S(=O)(Nc1ccc(O)c(-c2c(O)ccc3ccccc23)c1)c1cc(Cl)ccc1Cl` [Compound 2]: the IC50 is 29 µM in assay [5] and 6.5 µM in assay [4]. Further, in the assay with PRAS40, the “effect on PRAS40 degradation” value was “neither had any effect”. For the same compound, in the assay with Raf-1, the “effect on Raf-1 degradation” value is listed as “neither had any effect”.
Regarding `COc1ccc(O)c(O)c1-c1cc(NS(=O)(=O)c2cc(Cl)ccc2Cl)ccc1N` [Compound 13], the “IC50 FP” value against Hsp90 [1] (mean of 2 independent determinations, maximum concentration tested 50 µM) is “sub-micromolar”. Further, the “effect on PRAS40 degradation” value with PRAS40 is “neither had any effect”. Further, in assay [4], the IC50 was found to be 6 µM. Besides, the “effect on Raf-1 degradation” value in the assay with Raf-1 is “neither had any effect”.
